These are literature values, as cited in patent US20070281927A1, “Anti-inflammatory and analgesic compositions and related methods” (priority 2006, published 2007).

Test in data set [1]: not given
The source holds these as a separate data set.

Turning to `Cc1cnc(NC(=O)C2=C(O)c3ccccc3S(=O)(=O)N2C)s1` [Meloxicam, 4-hydroxy-2-methyl-N-(5-methyl-2-thiazolyl-)-2H-1,2-benzothiazine-3-carboxamide 1,1-dioxide], where the note is “after oral administration, many individuals”, the “time to maximum plasma concentration” value was not below 5 h. Also, where the note is “post-dose, suggests gastrointestinal recirculation”, the “time of second meloxicam concentration peak” value was “twelve to fourteen”. Besides, the bioavailability (as a rule, dose-corrected exposure relative to a reference, in per cent) (single 30 mg oral dose compared to 30 mg intravenous bolus injection) is 89%. The “solubility in acidic or neutral mediums” value in data set [1] (acidic or neutral mediums) is given as “low solubility”. Besides, in data set [1] (acidic pH range of the upper gastrointestinal tract), the “solubility at the acidic pH range of the upper gastrointestinal tract” value was “poorly soluble”. For the same compound, in data set [1] (water), the solubility in water entry is “practically insoluble”.
